Data taken from ChEMBL document CHEMBL3600310 (J Med Chem, 2015).
Activity calls are given as the source filed them. No cut-off for these calls is given here.

Tests used:
[1] = molecular target: Tubulin (Homo sapiens) (UniProt P68371+Q9H4B7+P0DPH7+P68366+Q13509+Q71U36+P04350+Q3ZCM7+P07437+P68363+Q9BQE3+Q6PEY2+Q13885+Q9BVA1+Q9BUF5); assay: Inhibition of brain tubulin (unknown origin) polymerization at 5 uM measured up to 15 to 30 mins
[2] = test system: MDA-MB-435; assay: Cytotoxicity against human MDA-MB-435 cells after 72 hrs by MTT assay; type: functional, cell-based; details: MDA-MB-435, 72 h
[3] = test system: HCT-116; assay: Antitumor activity against human HCT116 cells xenografted in BALB/C mouse assessed as tumor growth inhibition at 2 mg/kg, ip for 5 days; type: functional, organism-based
[4] = test system: A549; assay: Cytotoxicity against human A549 cells after 72 hrs by MTT assay; type: functional, cell-based; details: A549, 72 h
[5] = Cytotoxicity against human SKHEP1 cells after 72 hrs by MTT assay; type: functional, cell-based; details: SK-HEP1, 72 h
[6] = molecular target: T1, DNA topoisomerase 1 (Homo sapiens) (UniProt P11387); assay: Inhibition of Top1 (unknown origin)-mediated pBR322 DNA cleavage using ethidium bromide staining at 200 uM after 15 mins by electrophoresis analysis
T1 sequence (whole entry): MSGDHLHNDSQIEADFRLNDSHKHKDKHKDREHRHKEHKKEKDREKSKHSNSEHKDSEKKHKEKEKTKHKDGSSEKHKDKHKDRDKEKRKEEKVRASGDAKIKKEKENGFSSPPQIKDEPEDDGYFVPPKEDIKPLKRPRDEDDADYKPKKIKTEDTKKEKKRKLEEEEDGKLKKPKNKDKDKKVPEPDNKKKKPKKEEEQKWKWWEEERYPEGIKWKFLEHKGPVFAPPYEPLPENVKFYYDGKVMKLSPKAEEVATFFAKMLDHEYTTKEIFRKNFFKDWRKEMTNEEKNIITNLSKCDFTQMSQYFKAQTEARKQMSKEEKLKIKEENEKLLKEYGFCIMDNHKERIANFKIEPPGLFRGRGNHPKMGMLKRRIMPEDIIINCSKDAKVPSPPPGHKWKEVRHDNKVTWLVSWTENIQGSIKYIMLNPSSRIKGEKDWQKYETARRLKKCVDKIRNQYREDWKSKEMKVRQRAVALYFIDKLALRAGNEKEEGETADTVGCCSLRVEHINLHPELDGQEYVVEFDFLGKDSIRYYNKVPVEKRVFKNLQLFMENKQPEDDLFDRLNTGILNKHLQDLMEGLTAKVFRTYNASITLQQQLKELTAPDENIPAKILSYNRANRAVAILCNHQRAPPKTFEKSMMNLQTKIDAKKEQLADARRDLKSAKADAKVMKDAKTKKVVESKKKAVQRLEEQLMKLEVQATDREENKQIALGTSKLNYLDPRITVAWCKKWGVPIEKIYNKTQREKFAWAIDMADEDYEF

[7] = Cytotoxicity against human SW579 cells after 72 hrs by MTT assay; type: functional, cell-based; details: SW579, 72 h
[8] = Cytotoxicity against human Bel7404 cells after 72 hrs by MTT assay; type: functional, cell-based; details: BEL-7404, 72 h
[9] = test system: HCT-116; assay: Cytotoxicity against human HCT116 cells after 72 hrs by MTT assay; type: functional, cell-based; details: HCT-116, 72 h
[10] = molecular target: DNA topoisomerase 2-alpha (Homo sapiens) (UniProt P11388); assay: Inhibition of Top2alpha (unknown origin)-mediated pBR322 DNA cleavage using ethidium bromide staining at 100 uM after 30 mins by electrophoresis analysis
Sequence of DNA topoisomerase 2-alpha (Homo sapiens) (P11388 whole entry): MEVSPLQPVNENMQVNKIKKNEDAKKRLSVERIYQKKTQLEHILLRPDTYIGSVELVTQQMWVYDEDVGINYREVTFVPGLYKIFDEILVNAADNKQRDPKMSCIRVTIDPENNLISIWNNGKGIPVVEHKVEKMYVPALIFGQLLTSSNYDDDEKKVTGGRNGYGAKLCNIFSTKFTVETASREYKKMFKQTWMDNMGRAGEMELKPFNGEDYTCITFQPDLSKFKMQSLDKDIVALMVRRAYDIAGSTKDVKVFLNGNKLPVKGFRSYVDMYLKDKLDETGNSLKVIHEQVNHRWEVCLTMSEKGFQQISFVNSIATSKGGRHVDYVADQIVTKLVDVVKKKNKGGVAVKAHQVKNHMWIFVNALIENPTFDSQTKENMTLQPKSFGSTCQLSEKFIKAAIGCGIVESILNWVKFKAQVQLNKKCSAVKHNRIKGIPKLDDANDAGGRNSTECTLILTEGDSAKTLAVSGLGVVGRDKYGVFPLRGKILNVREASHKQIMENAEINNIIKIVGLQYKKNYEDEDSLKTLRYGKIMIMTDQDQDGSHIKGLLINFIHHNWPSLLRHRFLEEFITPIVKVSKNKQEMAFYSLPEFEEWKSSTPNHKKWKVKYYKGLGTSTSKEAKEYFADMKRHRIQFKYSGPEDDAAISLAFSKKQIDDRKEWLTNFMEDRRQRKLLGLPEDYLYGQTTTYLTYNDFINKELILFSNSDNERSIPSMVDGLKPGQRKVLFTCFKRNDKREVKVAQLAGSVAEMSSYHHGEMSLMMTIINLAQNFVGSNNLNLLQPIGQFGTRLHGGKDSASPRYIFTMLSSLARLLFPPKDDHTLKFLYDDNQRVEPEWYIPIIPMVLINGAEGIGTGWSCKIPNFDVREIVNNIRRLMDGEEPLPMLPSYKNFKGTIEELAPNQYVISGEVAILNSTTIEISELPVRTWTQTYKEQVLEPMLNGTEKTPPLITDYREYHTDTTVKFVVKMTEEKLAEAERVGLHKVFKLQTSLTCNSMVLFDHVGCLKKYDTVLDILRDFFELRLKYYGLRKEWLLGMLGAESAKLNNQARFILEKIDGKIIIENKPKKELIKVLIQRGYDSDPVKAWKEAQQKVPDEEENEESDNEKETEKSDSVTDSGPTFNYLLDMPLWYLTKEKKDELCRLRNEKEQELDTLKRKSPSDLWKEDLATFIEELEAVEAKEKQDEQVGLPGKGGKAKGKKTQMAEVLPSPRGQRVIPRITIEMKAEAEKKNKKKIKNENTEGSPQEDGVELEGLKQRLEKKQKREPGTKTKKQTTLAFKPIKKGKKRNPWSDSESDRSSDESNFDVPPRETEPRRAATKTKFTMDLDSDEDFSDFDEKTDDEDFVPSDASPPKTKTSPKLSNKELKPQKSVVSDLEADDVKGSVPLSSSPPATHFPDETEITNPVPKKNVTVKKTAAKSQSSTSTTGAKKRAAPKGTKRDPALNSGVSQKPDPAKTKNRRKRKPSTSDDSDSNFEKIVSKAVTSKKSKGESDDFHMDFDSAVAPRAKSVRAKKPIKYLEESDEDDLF

[11] = test system: PC-3; assay: cells; details: Homo sapiens, PC-3, 72 h
Description: Cytotoxicity against human PC3 cells after 72 hrs by MTT assay

[12] = test system: NCI-H446; assay: Cytotoxicity against human NCI-H446 cells after 72 hrs by MTT assay; type: functional, cell-based; details: NCI-H446, 72 h
[13] = molecular target: T1, DNA topoisomerase 1 (Homo sapiens); assay: Inhibition of Top1 (unknown origin)-mediated pBR322 DNA cleavage using ethidium bromide staining at 100 uM after 15 mins by electrophoresis analysis
[14] = Cytotoxicity against human MV-3 cells after 72 hrs by MTT assay; type: functional, cell-based; details: MV-3, 72 h
[15] = test system: K562; assay: Cytotoxicity against human K562 cells after 72 hrs by MTT assay; type: functional, cell-based; details: K562, 72 h
[16] = molecular target: T1, DNA topoisomerase 1 (Homo sapiens); assay: Inhibition of Top1 (unknown origin)-mediated pBR322 DNA cleavage using ethidium bromide staining at 50 uM after 15 mins by electrophoresis analysis
[17] = molecular target: Tubulin; assay: Inhibition of brain tubulin (unknown origin) polymerization measured up to 15 to 30 mins; design: species or system Homo sapiens
[18] = test system: A549; assay: Antitumor activity against human A549 cells xenografted in BALB/C mouse assessed as tumor growth inhibition at 2 mg/kg, ip for 5 days; type: functional, organism-based
[19] = test system: Mus musculus; assay: Toxicity in human A549 cells xenografted BALB/C mouse assessed as change in body weight at 2 mg/kg, ip for 5 days; type: organism-based; details: in vivo, 120 h
[20] = test system: Mus musculus; assay: Toxicity in human A549 cells xenografted BALB/C mouse assessed as mortality at 2 mg/kg, ip for 5 days; type: organism-based; details: in vivo, 120 h
[21] = test system: A549; assay: Induction of apoptosis in human A549 cells assessed as apoptotic cells at 5 uM after 48 hrs by flow cytometry analysis; type: functional
[22] = test system: A549; assay: Cell cycle arrest in human A549 cells assessed as accumulation at G2/M phase using propidium iodide staining at 5 uM after 12 hrs by flow cytometry analysis; type: functional, cell-based
[23] = test system: A549; assay: Cell cycle arrest in human A549 cells assessed as accumulation at G2/M phase using propidium iodide staining at 5 uM after 36 hrs by flow cytometry analysis; type: functional
[24] = test system: A549; assay: Induction of apoptosis in human A549 cells assessed as change in cell morphology at 5 uM after 36 hrs by light microscope analysis; type: functional, cell-based
[25] = test system: Mus musculus; assay: Toxicity in human A549 cells xenografted BALB/C mouse assessed as change in body weight at 0.5 mg/kg, ip for 5 days; type: organism-based; details: in vivo, 120 h

| Compound | IC50 [2] | growth inhibition (GI) [3] | IC50 [4] | IC50 [5] | inhibition [6] | IC50 [7] | IC50 [8] | IC50 [9] | inhibition [10] | IC50 [11] | IC50 [12] | inhibition [13] | IC50 [14] | IC50 [15] | inhibition [16] | further results |
| --- | --- | --- | --- | --- | --- | --- | --- | --- | --- | --- | --- | --- | --- | --- | --- | --- |
| O=C1c2cc(Cl)ccc2SC2c3[nH]c4ccc(O)cc4c3CCN12 (stereo unspecified) | < 0.003 µM | Active | 0.02 µM | 2.1 µM | Active | 6.9 µM | < 0.003 µM | < 0.003 µM | Active | 0.37 µM | > 200 µM | Active | 1.3 µM | < 0.003 µM | Active | inhibition [1]: 63%; IC50 [17]: 4.5 µM |
| Nc1ccc2c(c1)C(=O)N1CCc3c([nH]c4ccc(O)cc34)C1O2 (stereo unspecified) | 0.6 µM | – | 29.1 µM | – | Active | – | – | 0.5 µM | inactive | – | – | – | – | – | – | – |
| Cc1ccc2c(c1)OC1c3[nH]c4ccc(O)cc4c3CCN1C2=O (stereo unspecified) | < 0.003 µM | – | 6.5 µM | – | – | – | – | < 0.003 µM | – | – | – | – | – | – | – | growth inhibition (GI) [18]: Active; Activity [19]: Non-toxic; Activity [20]: Non-toxic |
| O=C1c2ccccc2SC2c3[nH]c4ccccc4c3CCN12 (stereo unspecified) | – | – | – | – | Active | – | – | – | inactive | – | – | Active | – | – | Active | – |
| O=C1c2ccccc2SC2c3[nH]c4ccc(O)cc4c3CCN12 (stereo unspecified) | < 0.003 µM | Active | 0.05 µM | – | Active | – | – | 0.04 µM | inactive | – | – | – | – | – | – | growth inhibition (GI) [18]: Active; Activity [21]: 6%; Activity [22]: Active; Activity [19]: Non-toxic; Activity [20]: Non-toxic; Activity [23]: 68.2%; Activity [24]: Active |
| COc1ccc2[nH]c3c(c2c1)CCN1C(=O)c2ccccc2S(=O)(=O)C31 (stereo unspecified) | > 200 µM | – | > 200 µM | – | Active | – | – | > 200 µM | Active | – | – | Active | – | – | Active | – |
| COc1ccc2c(c1)C(=O)N1CCc3c([nH]c4ccc(O)cc34)C1S2 (stereo unspecified) | < 0.003 µM | – | 0.3 µM | 2.2 µM | Active | 7.3 µM | < 0.003 µM | < 0.003 µM | inactive | 0.43 µM | > 200 µM | Active | 1.2 µM | < 0.003 µM | Active | – |
| CC[C@@]1(O)C(=O)OCc2c1cc1n(c2=O)Cc2cc3ccccc3nc2-1 [CAMPTOTHECIN] | 1 µM | – | 0.1 µM | 0.96 µM | – | 0.71 µM | 0.14 µM | 0.09 µM | – | 2.5 µM | > 200 µM | – | < 0.003 µM | < 0.003 µM | – | – |
| O=C1c2cc(Cl)ccc2OC2c3[nH]c4ccc(O)cc4c3CCN12 (stereo unspecified) | 0.06 µM | Active | 5.2 µM | 1.8 µM | Active | 5.56 µM | < 0.003 µM | < 0.003 µM | inactive | 0.4 µM | > 200 µM | – | 1.1 µM | < 0.003 µM | – | inhibition [1]: 48%; growth inhibition (GI) [18]: Active; Activity [21]: 6.7%; Activity [22]: Active; Activity [19]: Non-toxic; Activity [20]: Non-toxic; Activity [23]: 63.7%; Activity [24]: Active; IC50 [17]: 5.3 µM |
| CCC1=C[C@@H]2CN(C1)Cc1c([nH]c3ccccc13)[C@@](C(=O)OC)(c1cc3c(cc1OC)N(C)[C@H]1[C@@](O)(C(=O)OC)[C@H](OC(C)=O)[C@]4(CC)C=CCN5CC[C@]31[C@@H]54)C2 [VINORELBINE] | – | – | – | – | – | – | – | – | – | – | – | – | – | – | – | IC50 [17]: 2 µM |
| CC[C@@]1(O)C(=O)OCc2c1cc1n(c2=O)Cc2cc3c(CN(C)C)c(O)ccc3nc2-1 [TOPOTECAN] | 0.4 µM | – | 7.4 µM | – | – | – | – | 0.7 µM | – | – | – | – | – | – | – | Activity [25]: Toxic |
| O=C1c2cc(O)ccc2SC2c3[nH]c4ccc(O)cc4c3CCN12 (stereo unspecified) | < 0.003 µM | Active | 0.7 µM | 0.49 µM | Active | 3.5 µM | < 0.003 µM | < 0.003 µM | Active | < 0.003 µM | 16.6 µM | Active | 0.14 µM | < 0.003 µM | Active | – |
| O=C1c2cc(O)ccc2OC2c3[nH]c4ccc(O)cc4c3CCN12 (stereo unspecified) | 0.8 µM | Active | 3.8 µM | 1.1 µM | Active | 5.15 µM | 0.06 µM | 1.2 µM | Active | 0.84 µM | > 200 µM | – | 1.2 µM | < 0.003 µM | – | – |
